The term IC50 denotes the concentration that inhibits the measured activity by half.

T1 sequence (Q9NZQ7 19-238): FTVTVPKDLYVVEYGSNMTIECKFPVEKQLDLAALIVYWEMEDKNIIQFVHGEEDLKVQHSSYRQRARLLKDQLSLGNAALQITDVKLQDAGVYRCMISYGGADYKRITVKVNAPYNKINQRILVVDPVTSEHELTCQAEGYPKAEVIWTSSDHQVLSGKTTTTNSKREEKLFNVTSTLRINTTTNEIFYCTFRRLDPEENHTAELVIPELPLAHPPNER

The test addresses T1, PD-1/PD-L1 protein/protein interaction (recombinant human PD-L1 protein (19-238), recombinant human PD-1 protein (25-167)) (Homo sapiens, UniProt Q9NZQ7).
T1 construct: Recombinant human PD-L1 protein (19-238) with a His-tag at the C-terminus; purchased AcroBiosystems PD1-H5229 (PD-L1-His); PD1-H5257 (PD-1-Fc)
In words: PD-1/PD-L1 Homogeneous Time-Resolved Fluorescence (HTRF) Binding Assay. Conditions: 25° C., PBS buffer (pH 7.4), 40 minutes preincubation with inhibitors. How it is done:
The assays were conducted in a standard black 384-well polystyrene plate with a final volume of 20 μL. Inhibitors were first serially diluted in DMSO and then added to the plate wells before the addition of other reaction components. The final concentration of DMSO in the assay was 1%. The assays were carried out at 25° C. in the PBS buffer (pH 7.4) with 0.05% Tween-20 and 0.1% BSA. Recombinant human PD-L1 protein (19-238) with a His-tag at the C-terminus was purchased from AcroBiosystems (PD1-H5229). Recombinant human PD-1 protein (25-167) with Fc tag at the C-terminus was also purchased from AcroBiosystems (PD1-H5257). PD-L1 and PD-1 proteins were diluted in the assay buffer and 10 μL was added to the plate well. Plates were centrifuged and proteins were preincubated with inhibitors for 40 minutes. The incubation was followed by the addition of 10 μL of HTRF detection buffer supplemented with Europium cryptate-labeled anti-human IgG (PerkinElmer-AD0212) specific for Fc and anti-His antibody conjugated to SureLight®-Allophycocyanin (APC, PerkinElmer-AD0059H). After centrifugation, the plate was incubated at 25° C. for 60 min. before reading on a PHERAstar FS plate reader (665 nm/620 nm ratio). Final concentrations in the assay were […], 10 nM PD-L1, 1 nM europium anti-human IgG and 20 nM anti-His-Allophycocyanin. IC50 determination was performed by fitting the curve of percent control activity versus the log of the inhibitor concentration using the GraphPad Prism 5.0 software.
For orientation: TR-FRET usually uses a lanthanide donor and a delayed reading to cut background.
As to `Cc1c(Nc2nccc3cc(CN4CC[C@@H](O)C4)cnc23)cccc1-c1cccc(NC(=O)c2nc3c(n2C)CCN(CC[C@H]2CC[C@H](C(=O)O)CC2)C3)c1Cl` (single isomer, unassigned) [Example 52], the IC50 was at most 10 nM.

For the molecule `Cc1c(Nc2nccc3cc(CN4CC[C@@H](O)C4)cnc23)cccc1-c1cccc(NC(=O)c2nc3c(n2C)CCN(CC[C@H]2CC[C@@H](C(=O)O)CC2)C3)c1Cl` (single isomer, unassigned) [Example 53], the IC50 is at most 10 nM.

With `Cc1c(NC(=O)c2nc3c(n2C)CCN(C2CCC(C)(C(=O)O)CC2)C3)cccc1-c1cccc(Nc2nccc3cc(CN4CC[C@@H](O)C4)cnc23)c1C` (single isomer, unassigned) [Example 62-peak1], the IC50 was at most 10 nM.

Consider `Cc1c(NC(=O)c2nc3c(n2C)CCN(C2CCC(C)(C(=O)O)CC2)C3)cccc1-c1cccc(Nc2nccc3cc(CN4CC[C@@H](O)C4)cnc23)c1C` (single isomer, unassigned) [Example 62-peak2], for which the IC50 is at most 10 nM.

In the case of `Cc1c(NC(=O)c2nc3c(n2C)CCN(C2CCC(C(=O)O)CC2)C3)cccc1-c1cccc(Nc2nccc3cc(CN4CC[C@@H](O)C4)cnc23)c1C` (single isomer, unassigned) [Example 64-peak1], the IC50 is at most 10 nM.

On to `Cc1c(NC(=O)c2nc3c(n2C)CCN(C2CCC(C(=O)O)CC2)C3)cccc1-c1cccc(Nc2nccc3cc(CN4CC[C@@H](O)C4)cnc23)c1C` (single isomer, unassigned) [Example 64-peak2], for which the IC50 is at most 10 nM.

Take `Cc1c(Nc2ncnc3cc(CN4CC[C@@H](O)C4)cnc23)cccc1-c1cccc(NC(=O)c2nc3c(n2C)CCN(C2CCC(C)(C(=O)O)CC2)C3)c1Cl` (single isomer, unassigned) [Example 68-peak1]: the IC50 is at most 10 nM.

For `Cc1c(Nc2ncnc3cc(CN4CC[C@@H](O)C4)cnc23)cccc1-c1cccc(NC(=O)c2nc3c(n2C)CCN(C2CCC(C)(C(=O)O)CC2)C3)c1Cl` (single isomer, unassigned) [Example 68-peak2], the half-inhibitory concentration (IC50) was at most 10 nM.

Turning to `Cc1c(-c2nc3c(s2)CNCC3)cccc1-c1cccc(Nc2nccc3cc(CNCCO)cnc23)c1Cl` [Example 1, 2-(((8-((2-chloro-2′-methyl-3′-(4,5,6,7-tetrahydrothiazolo[5,4-c]pyridin-2-yl)-[1,1′-biphenyl]-3-yl)amino)-1,7-naphthyridin-3-yl)methyl)amino)ethan-1-ol], the IC50 is at most 10 nM.

In the case of `Cc1c(Nc2nccc3cc(CNCCO)cnc23)cccc1-c1cccc(NC(=O)c2ccc(CNC3(C(=O)O)CCC3)cn2)c1F` [Example 2, 1-(((6-(2-fluoro-3′-(3-((2-hydroxyethylamino)methyl)-1,7-naphthyridin-8-ylamino)-2′-methylbiphenyl-3-ylcarbamoyl)pyridin-3-yl)methyl)amino)cyclobutanecarboxylic acid], the IC50 is at most 10 nM.

In the case of `Cc1c(Nc2nccc3cc(CNCCO)cnc23)cccc1-c1cccc(NC(=O)c2ccc(CN3CCCC[C@H]3C(=O)O)cn2)c1F` [Example 3, (S)-1-((6-((2-fluoro-3′-((3-(((2-hydroxyethyl)amino)methyl)-1,7-naphthyridin-8-yl)amino)-2′-methyl-[1,1′-biphenyl]-3-yl)carbamoyl)pyridin-3-yl)methyl)piperidine-2-carboxylic acid], the IC50 was at most 10 nM.

`Cc1c(Nc2nccc3cc(CNCCO)cnc23)cccc1-c1cccc(NC(=O)c2ccc(CNCCO)cn2)c1F` [Example 4, N-(2-fluoro-3′-((3-(((2-hydroxyethyl)amino)methyl)-1,7-naphthyridin-8-yl)amino)-2′-methyl-[1,1′-biphenyl]-3-yl)-5-(((2-hydroxyethyl)amino)methyl)picolinamide]: the IC50 is at most 10 nM.

As for `Cc1c(Nc2nccc3cc(CNCCO)cnc23)cccc1-c1cccc(NC(=O)c2ccc(CNCCO)cn2)c1Cl` [Example 5, N-(2-chloro-3′-((3-(((2-hydroxyethyl)amino)methyl)-1,7-naphthyridin-8-yl)amino)-2′-methyl-[1,1′-biphenyl]-3-yl)-5-(((2-hydroxyethyl)amino)methyl)picolinamide], the IC50 is at most 10 nM.

For `Cc1c(Nc2nccc3cc(CN4CC[C@@H](O)C4)cnc23)cccc1-c1cccc(NC(=O)c2ccc(CN3CC[C@@H](O)C3)cn2)c1Cl` [Example 6, N-(2-chloro-3′-((3-(((R)-3-hydroxypyrrolidin-1-yl)methyl)-1,7-naphthyridin-8-yl)amino)-2′-methyl-[1,1′-biphenyl]-3-yl)-5-(((R)-3-hydroxypyrrolidin-1-yl)methyl)picolinamide], the IC50 is at most 10 nM.

In the case of `Cc1c(Nc2nccc3cc(CN4CC[C@@H](C(=O)O)C4)cnc23)cccc1-c1cccc(NC(=O)c2ccc(CN3CC[C@@H](O)C3)cn2)c1Cl` [Example 7, (R)-1-((8-((2′-chloro-3′-(5-(((R)-3-hydroxypyrrolidin-1-yl)methyl)picolinamido)-2-methyl-[1,1′-biphenyl]-3-yl)amino)-1,7-naphthyridin-3-yl)methyl)pyrrolidine-3-carboxylic acid], the IC50 was at most 10 nM.

Consider `Cc1c(Nc2nccc3cc(CN4CC(C(=O)O)C4)cnc23)cccc1-c1cccc(NC(=O)c2ccc(CN3CC[C@@H](O)C3)cn2)c1Cl` [Example 8, (R)-1-((8-((2′-chloro-3′-(5-((3-hydroxypyrrolidin-1-yl)methyl)picolinamido)-2-methyl-[1,1′-biphenyl]-3-yl)amino)-1,7-naphthyridin-3-yl)methyl)azetidine-3-carboxylic acid], for which the IC50 was at most 10 nM.

For the molecule `Cc1c(Nc2nccc3cc(CN4CC[C@@H](O)C4)cnc23)cccc1-c1cccc(Nc2nccc3cc(CN4CC[C@@H](C(=O)O)C4)cnc23)c1C` [Example 9, (R)-1-((8-((3′-((3-(((R)-3-hydroxypyrrolidin-1-yl)methyl)-1,7-naphthyridin-8-yl)amino)-2,2′-dimethyl-[1,1′-biphenyl]-3-yl)amino)-1,7-naphthyridin-3-yl)methyl)pyrrolidine-3-carboxylic acid], the IC50 was at most 10 nM.

On to `Cc1c(Nc2nccc3cc(CN4CC[C@@H](O)C4)cnc23)cccc1-c1cccc(Nc2nccc3cc(CN4CC[C@H](C(=O)O)C4)cnc23)c1C` [Example 10, (S)-1-((8-((3′-((3-(((R)-3-hydroxypyrrolidin-1-yl)methyl)-1,7-naphthyridin-8-yl)amino)-2,2′-dimethyl-[1,1′-biphenyl]-3-yl)amino)-1,7-naphthyridin-3-yl)methyl)pyrrolidine-3-carboxylic acid], for which the IC50 was at most 10 nM.

For `Cc1c(Nc2nccc3cc(CNCCO)cnc23)cccc1-c1cccc(Nc2nccc3cc(CN4CC[C@@H](C(=O)O)C4)cnc23)c1C` [Example 11, (R)-1-((8-((3′-((3-(((2-hydroxyethyl)amino)methyl)-1,7-naphthyridin-8-yl)amino)-2,2′-dimethyl-[1,1′-biphenyl]-3-yl)amino)-1,7-naphthyridin-3-yl)methyl)pyrrolidine-3-carboxylic acid], the IC50 is at most 10 nM.

With `Cc1c(Nc2nccc3cc(CN4CC[C@H](O)C4)cnc23)cccc1-c1cccc(Nc2nccc3cc(CN4CC[C@@H](C(=O)O)C4)cnc23)c1C` [Example 12, (R)-1-((8-((3′-((3-(((S)-3-hydroxypyrrolidin-1-yl)methyl)-1,7-naphthyridin-8-yl)amino)-2,2′-dimethyl-[1,1′-biphenyl]-3-yl)amino)-1,7-naphthyridin-3-yl)methyl)pyrrolidine-3-carboxylic acid], the IC50 was at most 10 nM.

Take `Cc1c(Nc2nccc3cc(CN4CC[C@H](O)C4)cnc23)cccc1-c1cccc(Nc2nccc3cc(CN4CC[C@H](C(=O)O)C4)cnc23)c1C` [Example 13, (S)-1-((8-((3′-((3-(((S)-3-hydroxypyrrolidin-1-yl)methyl)-1,7-naphthyridin-8-yl)amino)-2,2′-dimethyl-[1,1′-biphenyl]-3-yl)amino)-1,7-naphthyridin-3-yl)methyl)pyrrolidine-3-carboxylic acid]: the IC50 was at most 10 nM.

Take `Cc1c(NC(=O)c2nc3c(n2C)CCN(C)C3)cccc1-c1cccc(Nc2nccc3cc(CN4CC(C(=O)O)C4)cnc23)c1Cl` [Example 14, 1-((8-(2-chloro-3′-(1,5-dimethyl-4,5,6,7-tetrahydro-1H-imidazo[4,5-c]pyridine-2-carboxamido)-2′-methylbiphenyl-3-ylamino)-1,7-naphthyridin-3-yl)methyl)azetidine-3-carboxylic acid]: the IC50 was at most 10 nM.

Take `Cc1c(Nc2nccc3cc(CN4CC[C@@H](O)C4)cnc23)cccc1-c1cccc(NC(=O)c2cc(CN3CC[C@@H](C(=O)O)C3)cn(C)c2=O)c1Cl` [Example 15, (R)-1-((5-(2-chloro-3′-(3-(((R)-3-hydroxypyrrolidin-1-yl)methyl)-1,7-naphthyridin-8-ylamino)-2′-methylbiphenyl-3-ylcarbamoyl)-1-methyl-6-oxo-1,6-dihydropyridin-3-yl)methyl)pyrrolidine-3-carboxylicacid]: the IC50 is at most 10 nM.

These data come from US12466822B2, “Heterocyclic compounds as immunomodulators” (Incyte Corporation, priority 2016, dated 2025).
